Assay results reported in patent US20090246787A1, “METHOD AND APPARATUS FOR DETERMINING CHEMOSENSITIVITY” (SYSMEX CORPORATION, priority 2008, published 2009).
Read-outs that look alike come from different tables or passages of the source.

Columns and labels:
HS 578T cells = experiment: MTT living-cell assay, doxorubicin IC50; format: cell-based; settings: Homo sapiens, 72 h, cultured 3 days with doxorubicin, MTT method, read-out: IC50 class (chemosensitivity estimated by IC50)
Protocol: (§1) Human breast cancer cell lines, that is, HS 578T cells (ATCC HTB-126R), MDA-MB-435s cells (ATCC HTB-129), BT20 cells (ATCC HTB-19), CAMA-1 cells (ATCC HTB-21), T47D cells (ATCC HTB-133), MDA-MB-361 cells (ATCC HTB-27), UACC893 cells (ATCC CRL-1902) and BT474 cells (ATCC HTB-20) were purchased from American Type Culture Collection (ATCC) and cultured under culture conditions recommended by ATCC, as follow.
HS 578T cells were cultured in 5 vol % CO2 at 37° C., in a Dulbecco's modified Eagle medium containing 4 mM of L-glutamine, 10% by mass of fetal bovine serum and 0.01 mg/L of bovine insulin, with glucose at a final concentration of 4.5 g/L and sodium bicarbonate at a final concentration of 1.5/L. […]
(§2) The number of living cells in each of the cultures thus obtained was determined by an MTT method of using 3-(4,5-dimethylthiazol-2-yl)-2,5-diphenyl-2H-tetrazolium bromide. The number of living cells to be inoculated was established for each type of cell so as to enable the influence of the drug to be evaluated in the measurement range where the primary correlation between the number of cells in the serial dilution to be inoculated and the determined number of the living cells was kept high.
(§3) Thereafter, the number of living cells in each of the cultures thus obtained was measured by the MTT method of using 3-(4,5-dimethylthiazol-2-yl)-2,5-diphenyl-2H-tetrazolium bromide. […]

MDA-MB-435S cells = experiment: MTT living-cell assay, doxorubicin IC50; format: cell-based; settings: Homo sapiens, 72 h, cultured 3 days with doxorubicin, MTT method, read-out: IC50 class (chemosensitivity estimated by IC50)
BT20 cells = experiment: MTT living-cell assay, doxorubicin IC50; format: cell-based; settings: Homo sapiens, BT-20, 72 h, cultured 3 days with doxorubicin, MTT method, read-out: IC50 class (chemosensitivity estimated by IC50)
Protocol: as §1
BT-20 cells were cultured in 5 vol % CO2 at 37° C., in an Eagle minimum essential medium containing Earle's BSS, 2 mM of L-glutamine, 1.0 mM of sodium pyruvate, 0.1 mM of nonessential amino acids, 1.5 g/L of sodium bicarbonate and 10% by mass of fetal bovine serum. […]
as §2, §3

CAMA-1 cells = experiment: MTT living-cell assay, doxorubicin IC50; format: cell-based; settings: Homo sapiens, 72 h, cultured 3 days with doxorubicin, MTT method, read-out: IC50 class (chemosensitivity estimated by IC50)
Protocol: CAMA-1 cells were cultured in 5 vol % CO2 at 37° C., in an Eagle minimum essential medium containing Earle's BSS, 2 mM of L-glutamine, 1.0 mM of sodium pyruvate, 0.1 mM of nonessential amino acids, 1.5 g/L of sodium bicarbonate and 10% by mass of fetal bovine serum.
(§4) Each of the breast cancer cell lines, that is, HS 578T cells, MDA-MB-435S cells, BT20 cells, CAMA-1 cells, T47D cells, MDA-MB-361 cells, UACC893 cells and BT474 cells, was diluted stepwise to produce 7 serial cell dilutions.
as §2
Thereafter, the number of living cells in each of the cultures thus obtained was measured by the MTT method of using 3-(4,5-dimethylthiazol-2-yl)-2,5-diphenyl-2H-tetrazolium bromide. This measurement was conducted 4 times. […]

T47D cells = experiment: MTT living-cell assay, doxorubicin IC50; format: cell-based; settings: Homo sapiens, 72 h, cultured 3 days with doxorubicin, MTT method, read-out: IC50 class (chemosensitivity estimated by IC50)
Protocol: as §1
T-47D cells were cultured in 5 vol % CO2 at 37° C., in an RPMI 1640 medium containing 2 mM of L-glutamine, 1.0 mM of HEPES, 1.0 mM of sodium pyruvate, 4.5 g/L of glucose, 1.5 g/L of sodium bicarbonate, 10% by mass of fetal bovine serum and 0.2 unit/mL of bovine insulin. […]
as §2, §3

MDA-MB-361 cells = experiment: MTT living-cell assay, doxorubicin IC50; format: cell-based; settings: Homo sapiens, 72 h, cultured 3 days with doxorubicin, MTT method, read-out: IC50 class (chemosensitivity estimated by IC50)
UACC893 cells = experiment: MTT living-cell assay, doxorubicin IC50; format: cell-based; settings: Homo sapiens, UACC-893, 72 h, cultured 3 days with doxorubicin, MTT method, read-out: IC50 class (chemosensitivity estimated by IC50)
BT474 cells = experiment: MTT living-cell assay, doxorubicin IC50; format: cell-based; settings: Homo sapiens, BT-474, 72 h, cultured 3 days with doxorubicin, MTT method, read-out: IC50 class (chemosensitivity estimated by IC50)
Protocol: BT-474 cells were cultured in 5 vol % CO2 at 37° C., in a Dulbecco's modified medium containing 10% by mass of fetal bovine serum.
as §4, §2
Thereafter, the number of living cells in each of the cultures thus obtained was measured by the MTT method of using 3-(4,5-dimethylthiazol-2-yl)-2,5-diphenyl-2H-tetrazolium bromide. This measurement was conducted 4 times.
On the basis of the determined number of living cells, the concentration of doxorubicin (IC50) at which the ratio of the number of living cells in the culture not treated with doxorubicin to the number of living cells in the culture treated with doxorubicin became 50% was determined.

CDK1 [1] = settings: 100 nM doxorubicin, 24 hours
CDK1 [2] = settings: 100 nM doxorubicin, 24 hours; remark: listed apart in the source
[3] = used generally in chemotherapy; cited from earlier work

## COc1cccc2c1C(=O)c1c(O)c3c(c(O)c1C2=O)C[C@@](O)(C(=O)CO)C[C@@H]3O[C@H]1C[C@H](N)[C@H](O)[C@H](C)O1 [doxorubicin]
HS 578T cells
  IC50: < 200 nM
MDA-MB-435S cells
  IC50: < 200 nM
BT20 cells
  IC50: < 200 nM
CAMA-1 cells
  IC50: < 200 nM
T47D cells
  IC50: > 200 nM
MDA-MB-361 cells
  IC50: > 200 nM
UACC893 cells
  IC50: > 200 nM
BT474 cells
  IC50: > 200 nM
CDK1 [1]; BT20 cells
  difference of CDK1 activity level (not treated − treated with doxorubicin): great difference
  ratio of CDK1 activity level (treated with doxorubicin / not treated): low
CDK1 [1]; BT474 cells
  difference of CDK1 activity level (not treated − treated with doxorubicin): a little difference, or a minus difference
  ratio of CDK1 activity level (treated with doxorubicin / not treated): high
CDK1 [1]; CAMA-1 cells
  difference of CDK1 activity level (not treated − treated with doxorubicin): great difference
  ratio of CDK1 activity level (treated with doxorubicin / not treated): low
CDK1 [1]; HS 578T cells
  difference of CDK1 activity level (not treated − treated with doxorubicin): great difference
  ratio of CDK1 activity level (treated with doxorubicin / not treated): low
CDK1 [1]; MDA-MB-361 cells
  difference of CDK1 activity level (not treated − treated with doxorubicin): a little difference, or a minus difference
  ratio of CDK1 activity level (treated with doxorubicin / not treated): high
CDK1 [1]; MDA-MB-435S cells
  difference of CDK1 activity level (not treated − treated with doxorubicin): great difference
  ratio of CDK1 activity level (treated with doxorubicin / not treated): low
CDK1 [1]; T47D cells
  difference of CDK1 activity level (not treated − treated with doxorubicin): a little difference, or a minus difference
  ratio of CDK1 activity level (treated with doxorubicin / not treated): high
CDK1 [1]; UACC893 cells
  difference of CDK1 activity level (not treated − treated with doxorubicin): a little difference, or a minus difference
  ratio of CDK1 activity level (treated with doxorubicin / not treated): high
CDK1 [2]; BT20 cells
  difference of CDK1 specific activity (not treated − treated with doxorubicin): high
  ratio of CDK1 specific activity (treated with doxorubicin / not treated): low
CDK1 [2]; BT474 cells
  difference of CDK1 specific activity (not treated − treated with doxorubicin): a little difference, or a minus difference
  ratio of CDK1 specific activity (treated with doxorubicin / not treated): high
CDK1 [2]; CAMA-1 cells
  difference of CDK1 specific activity (not treated − treated with doxorubicin): high
  ratio of CDK1 specific activity (treated with doxorubicin / not treated): low
CDK1 [2]; HS 578T cells
  difference of CDK1 specific activity (not treated − treated with doxorubicin): high
  ratio of CDK1 specific activity (treated with doxorubicin / not treated): low
CDK1 [2]; MDA-MB-361 cells
  difference of CDK1 specific activity (not treated − treated with doxorubicin): a little difference, or a minus difference
  ratio of CDK1 specific activity (treated with doxorubicin / not treated): high
CDK1 [2]; MDA-MB-435S cells
  difference of CDK1 specific activity (not treated − treated with doxorubicin): high
  ratio of CDK1 specific activity (treated with doxorubicin / not treated): low
CDK1 [2]; T47D cells
  difference of CDK1 specific activity (not treated − treated with doxorubicin): a little difference, or a minus difference
  ratio of CDK1 specific activity (treated with doxorubicin / not treated): high
CDK1 [2]; UACC893 cells
  difference of CDK1 specific activity (not treated − treated with doxorubicin): a little difference, or a minus difference
  ratio of CDK1 specific activity (treated with doxorubicin / not treated): high
[3]
  effective blood concentration: about 200 nM
